Values after ≈ are worked out from the molar mass of the structure shown.
Experiments:
Staphylococcus aureus [1] = assay: Antimicrobial activity against Staphylococcus aureus RN4220 harboring pBS-01multiple resistance gene cfr and phenolic resistance gene fexA obtained from swine feces
[2] = (§1) Antimicrobial activity against Bacillus sp. BS-01 expressing multiple resistance gene cfr and […] resistance gene fexA obtained from swine feces; type: functional; conditions: Bacillus sp. BS-01, Feces
Staphylococcus aureus [3] = assay: Antimicrobial activity against Staphylococcus aureus RN4220; type: functional
Bacillus sp. BS-01 = assay: as §1; type: functional

| Molecule | MIC (Staphylococcus aureus [1]) [µg/mL] | MIC [2] [µg/mL] | MIC (Staphylococcus aureus [3]) [µg/mL] | MIC (Bacillus sp. BS-01) [µg/mL] |
| --- | --- | --- | --- | --- |
| O=C(N[C@H](CO)[C@H](O)c1ccc([N+](=O)[O-])cc1)C(Cl)Cl [CHLORAMPHENICOL] | 4 (≈ 12.4 µM) | 32 (≈ 99 µM) | 16 (≈ 49.5 µM) | – |
| O=C(O)c1cn(C2CC2)c2cc(N3CCNCC3)c(F)cc2c1=O [CIPROFLOXACIN] | 0.5 (≈ 1.51 µM) | 8 (≈ 24.1 µM) | 0.5 (≈ 1.51 µM) | – |
| CCC[C@@H]1C[C@@H](C(=O)N[C@@H]([C@H]2O[C@H](SC)[C@H](O)[C@@H](O)[C@H]2O)[C@H](C)Cl)N(C)C1 [CLINDAMYCIN] | < 0.625 | > 32 | > 32 | – |
| CC[C@H]1OC(=O)[C@H](C)[C@@H](O[C@H]2C[C@@](C)(OC)[C@@H](O)[C@H](C)O2)[C@H](C)[C@@H](O[C@@H]2O[C@H](C)C[C@H](N(C)C)[C@H]2O)[C@](C)(O)C[C@@H](C)C(=O)[C@H](C)[C@@H](O)[C@]1(C)O [ERYTHROMYCIN] | 0.25 (≈ 0.341 µM) | > 64 | > 64 | – |
| CS(=O)(=O)c1ccc([C@@H](O)[C@@H](CF)NC(=O)C(Cl)Cl)cc1 [FLORFENICOL] | 4 (≈ 11.2 µM) | 32 (≈ 89.3 µM) | 16 (≈ 44.7 µM) | – |
| CC(=O)NC[C@H]1CN(c2ccc(N3CCOCC3)c(F)c2)C(=O)O1 [LINEZOLID] | 1 (≈ 2.96 µM) | 2 (≈ 5.93 µM) | – | – |
| CN(C)[C@@H]1C(O)=C(C(N)=O)C(=O)[C@@]2(O)C(O)=C3C(=O)c4c(O)cccc4[C@@](C)(O)[C@H]3C[C@@H]12 [TETRACYCLINE] | 1 (≈ 2.25 µM) | 32 (≈ 72 µM) | 1 (≈ 2.25 µM) | – |
| C=C[C@]1(C)C[C@@H](OC(=O)CSCCN(CC)CC)[C@]2(C)[C@H](C)CC[C@]3(CCC(=O)[C@H]32)[C@@H](C)[C@@H]1O [TIAMULIN] | < 0.5 | 256 (≈ 518 µM) | 32 (≈ 64.8 µM) | – |
| CN[C@H](CC(C)C)C(=O)N[C@H]1C(=O)N[C@@H](CC(N)=O)C(=O)N[C@H]2C(=O)N[C@H]3C(=O)N[C@H](C(=O)N[C@H](C(=O)O)c4cc(O)cc(O)c4-c4cc3ccc4O)[C@H](O)c3ccc(c(Cl)c3)Oc3cc2cc(c3O[C@@H]2O[C@H](CO)[C@@H](O)[C@H](O)[C@H]2O[C@H]2C[C@](C)(N)[C@H](O)[C@H](C)O2)Oc2ccc(cc2Cl)[C@H]1O [VANCOMYCIN] | – | 0.5 (≈ 0.345 µM) | – | – |
| GENTAMICIN | – | – | 0.25 | 8 |

Source: ChEMBL document CHEMBL1649326, “First report of the multidrug resistance gene cfr and the phenicol resistance gene fexA in a Bacillus strain from swine feces” (2010)
